Here are results for nine compounds from patent publication US10526316B2, “Quinoxaline and pyridopyrazine derivatives as PI3Kβ inhibitors” (Janssen Pharmaceutica NV, priority 2015, dated 2020).

Broadly, the Kd is the free concentration of one partner at which half of the binding sites on the other are occupied at equilibrium, for simple one-to-one binding. As a reminder, the IC50 is the point on the concentration scale where inhibition reaches its midpoint. What is called melting point is the temperature, or range, at which the solid turns liquid.

Read-outs that look alike come from different tables or passages of the source. A value given as a limit tells only on which side of the number the result lay.

For data set [1], the target named is T1, PI3Kβ (Homo sapiens, UniProt P42338).
T1 construct: purchased DiscoveRx Corporation, San Diego (contract service, KINOMEscan)
T1 sequence (P42338 whole entry): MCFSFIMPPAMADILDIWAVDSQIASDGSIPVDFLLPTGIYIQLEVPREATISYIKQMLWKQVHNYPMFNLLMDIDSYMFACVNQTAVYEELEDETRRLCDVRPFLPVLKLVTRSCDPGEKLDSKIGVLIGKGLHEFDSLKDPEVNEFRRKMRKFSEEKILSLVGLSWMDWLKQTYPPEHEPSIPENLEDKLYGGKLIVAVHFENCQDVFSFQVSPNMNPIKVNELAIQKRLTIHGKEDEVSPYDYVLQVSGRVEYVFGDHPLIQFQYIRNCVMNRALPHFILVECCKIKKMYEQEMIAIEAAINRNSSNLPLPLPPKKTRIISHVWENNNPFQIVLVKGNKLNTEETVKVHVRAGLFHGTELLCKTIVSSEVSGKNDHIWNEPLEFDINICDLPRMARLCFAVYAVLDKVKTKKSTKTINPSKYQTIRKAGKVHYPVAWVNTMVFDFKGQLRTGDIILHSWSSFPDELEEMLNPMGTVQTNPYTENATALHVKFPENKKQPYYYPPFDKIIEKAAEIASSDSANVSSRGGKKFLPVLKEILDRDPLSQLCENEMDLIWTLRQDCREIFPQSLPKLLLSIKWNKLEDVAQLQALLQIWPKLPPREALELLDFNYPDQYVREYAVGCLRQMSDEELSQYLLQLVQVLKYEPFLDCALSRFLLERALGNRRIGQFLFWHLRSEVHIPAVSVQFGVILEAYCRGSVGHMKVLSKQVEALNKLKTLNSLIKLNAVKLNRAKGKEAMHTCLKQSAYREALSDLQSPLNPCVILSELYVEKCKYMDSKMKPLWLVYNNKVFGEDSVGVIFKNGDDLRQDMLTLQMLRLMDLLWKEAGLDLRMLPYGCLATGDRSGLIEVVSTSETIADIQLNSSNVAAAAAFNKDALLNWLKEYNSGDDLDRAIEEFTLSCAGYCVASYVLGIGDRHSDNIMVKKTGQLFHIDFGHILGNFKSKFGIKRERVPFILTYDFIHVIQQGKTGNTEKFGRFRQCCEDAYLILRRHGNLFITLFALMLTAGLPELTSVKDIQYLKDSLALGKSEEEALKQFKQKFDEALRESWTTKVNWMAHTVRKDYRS
The experiment in a line: Enzyme binding assay (KINOMEscan, DiscoveRx). Conditions: PIK3Cβ_h, read-out: Kd PIK3Cβ_h. In outline: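 Reported Kd (nM) reflects inhibitor binding to the kinase, as measured by KINOMEscan technology.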

For data set [2], the target named is T2, PI3Kδ (Homo sapiens, UniProt O00329).
T2 construct: purchased DiscoveRx Corporation, San Diego (contract service, KINOMEscan)
T2 sequence (O00329 1-1044): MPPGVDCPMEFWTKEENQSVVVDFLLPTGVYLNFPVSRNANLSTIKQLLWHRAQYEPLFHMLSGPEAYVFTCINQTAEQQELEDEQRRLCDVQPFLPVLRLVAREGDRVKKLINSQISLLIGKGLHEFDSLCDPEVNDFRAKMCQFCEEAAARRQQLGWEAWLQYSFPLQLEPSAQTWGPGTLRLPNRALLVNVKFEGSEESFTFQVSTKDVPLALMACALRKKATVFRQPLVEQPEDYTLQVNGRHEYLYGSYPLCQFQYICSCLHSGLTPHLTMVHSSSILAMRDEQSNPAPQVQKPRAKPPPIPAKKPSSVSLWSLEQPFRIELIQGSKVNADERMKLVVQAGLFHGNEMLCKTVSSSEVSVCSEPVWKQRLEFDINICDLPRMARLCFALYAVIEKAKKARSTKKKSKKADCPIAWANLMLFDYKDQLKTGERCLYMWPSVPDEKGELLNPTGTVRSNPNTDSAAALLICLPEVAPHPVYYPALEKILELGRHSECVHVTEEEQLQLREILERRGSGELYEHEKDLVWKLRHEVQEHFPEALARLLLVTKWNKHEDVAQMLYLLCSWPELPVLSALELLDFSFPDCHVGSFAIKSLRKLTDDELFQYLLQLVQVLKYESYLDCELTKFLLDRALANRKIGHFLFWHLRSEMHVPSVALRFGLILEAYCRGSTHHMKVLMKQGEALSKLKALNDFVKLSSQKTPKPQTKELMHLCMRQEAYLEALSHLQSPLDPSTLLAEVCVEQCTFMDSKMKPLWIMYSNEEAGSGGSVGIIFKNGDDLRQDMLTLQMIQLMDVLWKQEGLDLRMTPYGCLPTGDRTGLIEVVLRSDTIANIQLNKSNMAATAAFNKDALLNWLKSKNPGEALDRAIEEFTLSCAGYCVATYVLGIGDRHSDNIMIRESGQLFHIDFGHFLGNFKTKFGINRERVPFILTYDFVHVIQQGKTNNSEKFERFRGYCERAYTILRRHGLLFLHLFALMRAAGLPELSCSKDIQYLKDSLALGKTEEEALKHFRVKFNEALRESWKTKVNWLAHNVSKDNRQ
The experiment in a line: Enzyme binding assay (KINOMEscan, DiscoveRx). To be noted: PIK3Cδ_h. A digest of the protocol:
(§1)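 Kinase binding measured via KINOMEscan, reported as affinity.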

The target of data set [3] is T3, kinase enzymes (Homo sapiens, UniProt P42336).
T3 construct: purchased DiscoveRx Corporation, San Diego (contract service, KINOMEscan)
T3 sequence (P42336 whole entry): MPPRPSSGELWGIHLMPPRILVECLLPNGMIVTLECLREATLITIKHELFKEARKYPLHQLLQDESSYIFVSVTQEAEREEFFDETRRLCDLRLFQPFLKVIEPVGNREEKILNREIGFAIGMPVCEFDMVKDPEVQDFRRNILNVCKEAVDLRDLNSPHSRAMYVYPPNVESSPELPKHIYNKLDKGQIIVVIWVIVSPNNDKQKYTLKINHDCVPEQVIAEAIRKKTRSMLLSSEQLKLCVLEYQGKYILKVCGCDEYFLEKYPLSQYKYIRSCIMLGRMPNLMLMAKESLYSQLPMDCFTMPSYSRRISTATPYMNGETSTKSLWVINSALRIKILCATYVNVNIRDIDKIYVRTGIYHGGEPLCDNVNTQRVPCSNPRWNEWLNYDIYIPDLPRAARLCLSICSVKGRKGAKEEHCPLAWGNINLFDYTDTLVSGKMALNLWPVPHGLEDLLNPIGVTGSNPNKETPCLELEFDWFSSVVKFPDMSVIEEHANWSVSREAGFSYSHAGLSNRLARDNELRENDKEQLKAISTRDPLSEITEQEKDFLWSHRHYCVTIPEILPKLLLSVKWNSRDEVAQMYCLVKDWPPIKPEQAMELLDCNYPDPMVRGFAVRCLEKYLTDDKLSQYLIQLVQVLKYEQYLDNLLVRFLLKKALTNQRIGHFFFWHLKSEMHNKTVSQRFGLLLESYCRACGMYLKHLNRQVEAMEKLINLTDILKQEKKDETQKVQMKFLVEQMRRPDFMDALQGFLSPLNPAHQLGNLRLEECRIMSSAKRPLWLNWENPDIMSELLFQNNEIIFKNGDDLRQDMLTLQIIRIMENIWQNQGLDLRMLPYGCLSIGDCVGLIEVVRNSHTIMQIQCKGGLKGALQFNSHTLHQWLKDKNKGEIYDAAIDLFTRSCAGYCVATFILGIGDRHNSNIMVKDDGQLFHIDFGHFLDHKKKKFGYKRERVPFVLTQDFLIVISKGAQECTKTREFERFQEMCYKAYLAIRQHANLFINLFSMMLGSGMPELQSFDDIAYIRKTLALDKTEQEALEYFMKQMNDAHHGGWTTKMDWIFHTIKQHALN
Description: Enzyme binding assay (KINOMEscan, DiscoveRx), further kinases of Table A. To be noted: PIK3Cα_h. A digest of the protocol: as §1

Data set [4] concerns the target T4, kinase enzymes (Homo sapiens, UniProt P42345).
T4 construct: purchased DiscoveRx Corporation, San Diego (contract service, KINOMEscan)
The description is as above. To be noted: MTOR_h. In outline: as §1

The target in data set [5] is T5, kinase enzymes (Homo sapiens, UniProt P48736).
T5 construct: purchased DiscoveRx Corporation, San Diego (contract service, KINOMEscan)
T5 sequence (P48736 whole entry): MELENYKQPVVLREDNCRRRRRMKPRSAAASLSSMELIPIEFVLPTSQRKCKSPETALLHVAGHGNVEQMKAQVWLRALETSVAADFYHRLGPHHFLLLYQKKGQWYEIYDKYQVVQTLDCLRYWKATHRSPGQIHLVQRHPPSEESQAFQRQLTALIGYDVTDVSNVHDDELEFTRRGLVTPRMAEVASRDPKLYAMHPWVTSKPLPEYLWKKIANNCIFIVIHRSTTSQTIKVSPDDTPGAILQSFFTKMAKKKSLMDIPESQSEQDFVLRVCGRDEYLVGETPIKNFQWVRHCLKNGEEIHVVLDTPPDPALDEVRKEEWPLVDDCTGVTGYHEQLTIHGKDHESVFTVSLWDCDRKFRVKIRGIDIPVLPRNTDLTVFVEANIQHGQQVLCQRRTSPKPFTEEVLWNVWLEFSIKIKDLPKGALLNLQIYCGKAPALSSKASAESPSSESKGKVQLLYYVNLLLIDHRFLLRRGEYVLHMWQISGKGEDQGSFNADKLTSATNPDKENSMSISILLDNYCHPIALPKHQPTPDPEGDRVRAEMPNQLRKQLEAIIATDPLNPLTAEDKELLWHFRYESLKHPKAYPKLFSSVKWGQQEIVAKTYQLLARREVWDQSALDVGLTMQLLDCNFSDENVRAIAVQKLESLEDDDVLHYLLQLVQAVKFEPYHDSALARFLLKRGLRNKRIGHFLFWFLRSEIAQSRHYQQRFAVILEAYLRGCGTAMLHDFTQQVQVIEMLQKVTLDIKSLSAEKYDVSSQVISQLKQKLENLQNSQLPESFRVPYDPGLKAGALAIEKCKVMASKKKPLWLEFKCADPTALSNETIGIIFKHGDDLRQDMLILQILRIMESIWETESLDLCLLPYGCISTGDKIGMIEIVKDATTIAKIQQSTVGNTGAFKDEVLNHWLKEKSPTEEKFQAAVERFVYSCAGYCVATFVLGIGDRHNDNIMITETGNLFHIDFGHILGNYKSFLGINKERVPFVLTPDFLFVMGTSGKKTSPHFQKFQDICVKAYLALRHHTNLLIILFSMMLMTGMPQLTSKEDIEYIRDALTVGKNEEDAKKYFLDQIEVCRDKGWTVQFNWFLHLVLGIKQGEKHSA
Described as above. Conditions: PIK3Cγ_h. In outline: as §1

Data set [6] relates to Akt phosphorylated at Ser473 in PC-3 cells. The experiment in a line: Cellular assay: phosphorylation of Akt at Ser473 in PC-3 cells (MSD ELISA). Format: cell-based. Conditions: PC-3 cells, 60 min compound incubation, MSD ELISA, read-out: IC50 pAkt_S473. A digest of the protocol:
(§2)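 Compound treatment of PC-3 cells lasted 60 min at 37° C (0.3% DMSO). Lysates were then applied to plates carrying capture antibodies for the relevant phospho-site, and bound Akt was detected with an electrochemiluminescent anti-total Akt antibody; IC50s derive from five-point curves.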
(ELISA stands for enzyme-linked immunosorbent assay.)

For data set [7], the system named is Akt phosphorylated at Thr308 in PC-3 cells. Description: Cellular assay: phosphorylation of Akt at Thr308 in PC-3 cells (MSD ELISA). Type of data set: cell-based. To be noted: PC-3 cells, 60 min compound incubation, MSD ELISA, read-out: IC50 pAkt_Thr308. A digest of the protocol:
as §2

In the case of `Cc1c(N2CCCC2c2cc(C(=O)N(C)C)cc3ncc(N4CCOCC4)nc23)cccc1C(F)(F)F` (stereo not drawn) [Compound 55], the melting point is 80 °C. Besides, in data set [1], the equilibrium dissociation constant (Kd) worked out at 3980 nM. Besides, in data set [2], the dissociation constant (Kd) was greater than 30200 nM. Moreover, in data set [3], the equilibrium dissociation constant (Kd) is greater than 30200 nM. Also, the Kd in data set [4] was greater than 30200 nM. In data set [5], this compound had a Kd greater than 30200 nM. The IC50 in data set [6] (Homo sapiens, PC-3, 1 h) was greater than 513 nM. Besides, in data set [7] (Homo sapiens, PC-3, 1 h), the IC50 is greater than 513 nM.

`CC(Oc1cccc(F)c1)c1cc(C(=O)NCCO)cc2ncc(N3CCOCC3)nc12` (single isomer, unassigned) [Compound 334b] displayed a melting point of 134 °C. The equilibrium dissociation constant (Kd) in data set [1] stood at 457 nM. In data set [2], this compound came in with a Kd of 7590 nM. Moreover, the equilibrium dissociation constant (Kd) in data set [3] worked out at 21400 nM. For the same compound, the Kd in data set [4] came out at 17400 nM. Besides, the affinity in data set [5], expressed as Kd, was 11000 nM. Besides, the half-maximal inhibitory concentration (IC50) in data set [6] is greater than 513 nM. Besides, the half-maximal inhibitory concentration (IC50) in data set [7] was greater than 513 nM.

`CC(Nc1ccc(F)c(F)c1)c1cc(C(=O)NCCCO)cc2ncc(N3CCOCC3)nc12` (stereo not drawn) [Compound 280]: the melting point is 164 °C. The equilibrium dissociation constant (Kd) in data set [1] was 6 nM. Besides, binding in data set [2] was characterised by a dissociation constant (Kd) of 427 nM. For the same compound, the Kd in data set [3] was determined as 5130 nM. The compound also showed an equilibrium dissociation constant (Kd) in data set [4] greater than 30200 nM. In data set [5], this compound had a dissociation constant Kd of 11200 nM. Further, in data set [6] (Homo sapiens, PC-3, 1 h), the half-inhibitory concentration (IC50) is roughly 275 nM. In addition, the concentration for half-maximal inhibition (IC50) in data set [7] (Homo sapiens, PC-3, 1 h) came out at 158 nM.

On to `CC(Nc1cc(F)cc(F)c1)c1cc(CN2CC3(C2)CS(=O)(=O)C3)cc2ncc(N3CCOCC3)nc12` (single isomer, unassigned) [Compound 160], for which the melting point worked out at 229 °C. Further, in data set [1], the Kd amounted to 2 nM. The same compound gave a Kd in data set [2] of 575 nM. In data set [3], this compound registered a Kd of 813 nM. The compound further returned a Kd in data set [4] of 19500 nM. Also, the Kd in data set [5] came to 9770 nM. For the same compound, the half-maximal inhibitory concentration (IC50) in data set [6] is 58 nM. Besides, in data set [7], the IC50 was 23 nM.

The compound `CC(Nc1cc(F)cc(F)c1)c1cc(Br)cc2ncc(N3CCOCC3)nc12` (stereo not drawn) [Compound 167] registered a melting point of 80 °C. In addition, the Kd in data set [1] was determined as 26 nM. In addition, the affinity in data set [2], expressed as Kd, was 7760 nM. Moreover, the Kd in data set [3] worked out at 17400 nM. In data set [4], this compound registered an equilibrium dissociation constant (Kd) greater than 30200 nM. The same compound showed a Kd in data set [5] of 12900 nM. Also, in data set [6] (Homo sapiens, PC-3, 1 h), the 50% inhibitory concentration (IC50) is greater than 513 nM. For the same compound, in data set [7] (Homo sapiens, PC-3, 1 h), the IC50 was roughly 427 nM.

`Cc1c(F)cccc1CNc1cc(C(=O)NCCO)cc2ncc(N3CCOCC3)nc12` [Compound 336] came in with a melting point of 194 °C. Besides, the dissociation constant (Kd) in data set [1] came out at 4 nM. The same compound gave a dissociation constant Kd in data set [2] of 871 nM. The compound also came in with a Kd in data set [3] of 1950 nM. Further, the dissociation constant Kd in data set [4] was 11000 nM. In addition, binding in data set [5] was characterised by a dissociation constant (Kd) of 9120 nM. Further, the IC50 in data set [6] (Homo sapiens, PC-3, 1 h) stood at 85 nM. Moreover, the IC50 in data set [7] (Homo sapiens, PC-3, 1 h) was determined as 46 nM.

In the case of `CC(Nc1ccc(F)c(F)c1)c1cc(C(=O)N(C)CCN(C)C)cc2ncc(N3CCOCC3)nc12` (single isomer, unassigned) [Compound 349a], the melting point worked out at 82 °C. Also, the equilibrium dissociation constant (Kd) in data set [1] amounted to 0.2 nM. In addition, binding in data set [2] was put at a Kd of 36 nM. The Kd in data set [3] amounted to 813 nM. In data set [4], this compound came in with a Kd greater than 30200 nM. The dissociation constant Kd in data set [5] was 4270 nM. Moreover, in data set [6], the IC50 was 4 nM. For the same compound, the half-maximal inhibitory concentration (IC50) in data set [7] worked out at 2 nM.

Consider `CC(Oc1cccc(F)c1)c1cc(C(=O)NCCO)cc2ncc(N3CCOCC3)nc12` (single isomer, unassigned) [Compound 334a], for which the melting point came out at 136 °C. For the same compound, in data set [1], the equilibrium dissociation constant (Kd) is 19 nM. Further, binding in data set [2] was put at a Kd of 1070 nM. This compound registered a Kd in data set [3] of 5370 nM. Further, in data set [4], the dissociation constant (Kd) was found to be 26900 nM. The same compound registered a dissociation constant Kd in data set [5] of 12900 nM. In data set [6] (Homo sapiens, PC-3, 1 h), the half-inhibitory concentration (IC50) amounted to 339 nM. In addition, the IC50 in data set [7] is 219 nM.

Regarding `CC(Nc1cc(F)cc(F)c1)c1cc(CNCC(F)F)cc2ncc(N3CCOCC3)nc12` (stereo not drawn) [Compound 164], the melting point worked out at 116 °C. The Kd in data set [1] worked out at 4 nM. The same compound showed a dissociation constant Kd in data set [2] of 1100 nM. Also, binding in data set [3] was characterised by a dissociation constant (Kd) of 2400 nM. In addition, in data set [4], the Kd is greater than 30200 nM. The compound further had a Kd in data set [5] of 13800 nM. In addition, in data set [6] (Homo sapiens, PC-3, 1 h), the half-inhibitory concentration (IC50) came out at 145 nM. For the same compound, the IC50 in data set [7] (Homo sapiens, PC-3, 1 h) was 71 nM.
